Experimental data: patent US20230330234A1, “HYPERBRANCHED POLYESTER POLYOL DERIVATIVE AS DRUG SOLUBILIZER” (FREIE UNIVERSITÄT BERLIN, priority 2020, published 2023)
Values after ≈ are worked out from the molar mass of the structure shown. Each block holds one compound with its values, some of them ahead of it.

Legend:
[1] = Carrying potential of h(PG-co-PCL)60S0.95 by UV-VIS; assay type: physicochemical; conditions: calculated by UV
Protocol: For drugs presenting an absorption band at wavelength higher than 400 nm, UV-VIS analysis is chosen as quantification method. First, a calibration curve of the free drug in the suitable solvent mixture is recorded. Suitable combinations of solvent include mixtures of water and methanol, as well as of water and ethanol, in both cases in a ratio falling in a range of from 40 to 60% to 20 to 80%.
The calibration curve is prepared with at least 5 points, in a concentration range depending on the drug to be quantified. Linear regression is applied to generate the equation of the straight-line necessary to calculate the drug content.
The formulation is afterwards dissolved in the same medium and an UV-VIS spectrum is recorded. It is possible to use a straight-line equation to get the concentration of drug in solution. Knowing the total volume of the formulation, the content of drug, in mg, can be calculated.
(§1) The carrying potential (CP) of the polymer (solubilizing agent) is obtained as the ratio of the loaded and solubilized drug to the amount of solubilizing agent (Eq. 1).
(§2) The following tables (Table 5, Table 6 and Table 7) show the results of the performed analyses. In this context, h(PG-co-PCL)60S0.95 was used as hyperbranched polyester polyol derivative. Its non-sulfated backbone has a molecular weight of 60 kDa. The polyester polyol derivative has a sulfation degree of 95%.

[2] = Solubility in aqueous solution of the hyperbranched polyester polyol derivative;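 also: drug added to a previously prepared clear aqueous solution of the solubilizing polymer, stirred 18 h at room temperature in the dark, then centrifuged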
physchem [3] = conditions: water
physchem [4] = conditions: aqueous with cosolvent or surfactant or cyclodextrin, thermodynamic from solid
[5] = Carrying potential of h(PG-co-PCL)60S0.95 by elemental analysis; assay type: physicochemical; conditions: calculated by elemental analysis
Text: as §1
For drugs presenting an absorption band at wavelength lower than 400 nm, the UV-VIS approach is not suitable, due to drug signals overlapping with signals of the solubilizing agent. Therefore, elemental analysis is chosen as alternative approach. The drugs chosen for the solubilization and entrapment contain nitrogen atoms, which are not present in the polymer structure. Via the quantification of the nitrogen content in the sample, it is possible to determine the amount of drug in it. For the loading quantification, the same equation is used as in the previous case.
as §2

HeLa cells = experiment: Cell viability experiment (toxicity) in HeLa cells; assay type: cell-based; conditions: Homo sapiens, free drug solubilized in DMSO vs drug solubilized in sulfated polyester polyol
KB-V1 cells = experiment: Cell viability experiment (toxicity) in KB-V1 cells; assay type: cell-based; conditions: Homo sapiens, free drug solubilized in DMSO vs drug solubilized in sulfated polyester polyol
[6] = Size and Z-potential investigation by DLS in PB; assay type: physicochemical; conditions: h(PG-co-PCL)60S0.95 with solubilized drug
Text: The following tables (Table 5, Table 6 and Table 7) show the results of the performed analyses. In this context, h(PG-co-PCL)60S0.95 was used as hyperbranched polyester polyol derivative. Its non-sulfated backbone has a molecular weight of 60 kDa.

- Carrying potential [1]: 10% wt %
Compound: CNCc1ccc(-c2cc(-c3nc(-c4ccc(S(=O)(=O)C(C)C)cc4)cnc3N)on2)cc1 [Berzosertib]

- Carrying potential [1]: 10% wt %
Compound: [2H]c1nc(C)nc([2H])c1-c1cc(NC[C@@H](C)c2cccc3c(C(=O)NC)ccnc23)ncn1 [M9831/VX-984]

- Solubility in water (Solubility in water): 1 µg/mL (≈ 1.78 µM)
- Solubility in aqueous polymer solution [2]: >300 µg/mL
Compound: CC(C)(C)C[C@@H]1N[C@@H](C(=O)N[C@H]2CC[C@H](O)CC2)[C@H](c2cccc(Cl)c2F)[C@]12C(=O)Nc1cc(Cl)ccc12 [MI-773]

- solubility (physchem [3]): 1 µg/mL (≈ 1.21 µM)
- solubility (physchem [4]): > 300 µg/mL
Compound: Cc1c(-c2c(-c3ccc(F)o3)sc3ncnc(O[C@H](Cc4ccccc4OCc4ccnn4CC(F)(F)F)C(=O)O)c23)ccc(OCCN2CCN(C)CC2)c1Cl [S63845]

Compound: CN[C@@H]1C[C@H]2O[C@@](C)([C@@H]1OC)n1c3ccccc3c3c4c(c5c6ccccc6n2c5c31)C(=O)NC4 [Staurosporin]
- Solubility in water (Solubility in water): 40 µg/mL (≈ 85.7 µM)
- Solubility in aqueous polymer solution [2]: >300 µg/mL

- Carrying potential [5]: 8.7%^ wt %
- Carrying potential [1]: 11% wt %
- solubility at 18 h (physchem [4]): > 300 µg/mL
- solubility (Solubility in water; Solubility in water): 30 µg/mL (≈ 75.3 µM)
Compound: CCN(CC)CCNC(=O)c1c(C)[nH]c(/C=C2\C(=O)Nc3ccc(F)cc32)c1C [Sunitinib]
- IC50 (HeLa cells): 3.52 µg/mL (≈ 8.84 µM)
- IC50 (KB-V1 cells): 1.95 µg/mL (≈ 4.9 µM)

Compound: CC(=O)Nc1cccc(-n2c(=O)n(C3CC3)c(=O)c3c(Nc4ccc(I)cc4F)n(C)c(=O)c(C)c32)c1 [Trametinib]
- Carrying potential [5]: 2% wt %
- Size (volume) ([6]; DLS in PB, in nm (unit assumed)): 14 ± 2
- Z-potential ([6]; in PB, in mV (unit assumed)): −18.9
- solubility (physchem [3]): 30 µg/mL (≈ 48.7 µM)
- solubility at 18 h (physchem [4]): > 300 µg/mL
